Test results reported in the supplement of paper PMC11208160.

test: recombinant UMI read abundance after kanamycin selection (control-corrected) (log10(CPM+1)); higher = more efficient recombination; extreme values may be limits of the assay; sequences stand for … in AGTGCAGAGAAAATCGGCCAGTTTTCTCTGCCTGCAGTCCGCATGCCGTGGGACCCCTTGGGTTCTAACCTGTTGCCTAGATTTATGCAGCGGACTGCCTTTCTCCCAAAGTGATAAACCGG…AGGTTGGTTTCACT; site = the 11-nt donor
How it was run: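 Pooled Escherichia coli screen of donor and donor-binding-loop pairs for the IS621 bridge recombinase. Each pair sits with a 12-nt UMI on a plasmid carrying a promoterless kanamycin gene. The library was co-electroporated with a target plasmid encoding a fixed target and T7-inducible recombinase, then plated with IPTG (0.07 mM) plus kanamycin, or unselected, each in two replicates. Recombinant UMIs were PCR-amplified across the donor–target junction and sequenced. Counts became CPM, averaged over replicates, scaled by control-derived factors and reported as log10(CPM+1).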
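Also: IS621 bridge recombinase in Escherichia coli cells against a fixed T5 target plasmid.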

| Sequence | recombinant UMI read abundance (log10) |
| --- | --- |
| TAGGAATCATGGACCGGTTTTCCCGGTAATCCGTATTTGCG (site TAGTAATCTCG) | 1.71 |
| TAGGAATCATGGACCGGTTTTCCCGGTAATCCGTATTTGCG (site TATGAATCTCG) | 1.63 |
| TAGGAATCATGGACCGGTTTTCCCGGTAATCCGTATTTGCG (site TCGGAATCTCG) | 1.51 |
| TAGGAATCATGGACCGGTTTTCCCGGTAATCCGTATTTGCG (site TGGGAATCTCG) | 1.02 |
| TAGGAATCATGGACCGGTTTTCCCGGTAATCCGTATTTGCG (site TTGGAATCTCG) | 1.47 |
| TAGGAATCATGGACCGGTTTTCCCGGTAATCCGTATTTGCT (site TAGGAATCTAG) | 2.58 |
| TAGGAATCATGGACCGGTTTTCCCGGTAATCCGTATTTGCT (site TAGGAATCTCG) | 1.1 |
| TAGGAATCATGGACCGGTTTTCCCGGTAATCCGTATTTGCT (site TAGGAATCTGG) | 2.28 |
| TAGGAATCATGGACCGGTTTTCCCGGTAATCCGTATTTGCT (site TAGGAATCTTG) | 1.5 |
| TAGGATGCATGGACCGGTTTTCCCGGTAATCCGTATTTGGC (site TAGGATGCTGC) | 3.08 |
| TAGGCAACATGGACCGGTTTTCCCGGTAATCCGTATTTGAA (site TAGGCAACTTT) | 0.0147 |
| TAGGGACCATGGACCGGTTTTCCCGGTAATCCGTATTTGGT (site TAGGGACCTAC) | 0.00346 |
| TAGGTAACATGGACCGGTTTTCCCGGTAATCCGTATTTGAC (site TAGGTAACTGT) | 2.17 |
| TAGGTGTCATGGACCGGTTTTCCCGGTAATCCGTATTTGCA (site TAGGTGTCTTG) | 3.29 |
| TAGGTTCCATGGACCGGTTTTCCCGGTAATCCGTATTTGCC (site TAGGTTCCTGG) | 1.32 |
| TAGTAAGCATGGACCGGTTTTCCCGGTAATCCGTATTTGTA (site TAGTAAGCTTA) | 2.8 |
| TAGTACCCATGGACCGGTTTTCCCGGTAATCCGTATTTGGT (site TAGTACCCTAC) | 0.271 |
| TAGTACTCATGGACCGGTTTTCCCGGTAATCCGTATTTGCA (site TAGTACTCTTG) | 2.61 |
| TAGTATACATGGACCGGTTTTCCCGGTAATCCGTATTTGAC (site TAGTATACTGT) | 2.58 |

| Sequence | recombinant UMI read abundance (log10) |
| --- | --- |
| TAGTATACATGGACCGGTTTTCCCGGTAATCCGTATTTGCA (site TAGAATACTTG) | 1.23 |
| TAGTATACATGGACCGGTTTTCCCGGTAATCCGTATTTGCA (site TAGCATACTTG) | 1.11 |
| TAGTATACATGGACCGGTTTTCCCGGTAATCCGTATTTGCA (site TAGGATACTTG) | 0.222 |
| TAGTATACATGGACCGGTTTTCCCGGTAATCCGTATTTGCA (site TAGTATACTTG) | 2.25 |
| TAGTATCCATGGACCGGTTTTCCCGGTAATCCGTATTTGCA (site TAGTATCCTTG) | 0.736 |
| TAGTGATCATGGACCGGTTTTCCCGGTAATCCGTATTTGCA (site TAGTGATCTTG) | 3.02 |
| TAGTGGGCATGGACCGGTTTTCCCGGTAATCCGTATTTGTC (site TAGTGGGCTGA) | 2.31 |
| TAGTTGCCATGGACCGGTTTTCCCGGTAATCCGTATTTGCC (site TAGTTGCCTGG) | 0 |
| TAGTTGGCATGGACCGGTTTTCCCGGTAATCCGTATTTGTG (site TAATTGGCTCA) | 0.0238 |
| TAGTTGGCATGGACCGGTTTTCCCGGTAATCCGTATTTGTG (site TACTTGGCTCA) | 0.0102 |
| TAGTTGGCATGGACCGGTTTTCCCGGTAATCCGTATTTGTG (site TAGTTGGCTCA) | 0.476 |
| TAGTTGGCATGGACCGGTTTTCCCGGTAATCCGTATTTGTG (site TATTTGGCTCA) | 0.00327 |
| TAGTTTCCATGGACCGGTTTTCCCGGTAATCCGTATTTGAA (site TAGTTTCCTTT) | 0.228 |
| TAGTTTGCATGGACCGGTTTTCCCGGTAATCCGTATTTGCC (site TAGTTTGCTGG) | 0 |
| TATACCCCATGGACCGGTTTTCCCGGTAATCCGTATTTGAC (site TATACCCCTGT) | 1.5 |
| TATACTACATGGACCGGTTTTCCCGGTAATCCGTATTTGTG (site TATACTACTCA) | 0.195 |
| TATATCGCATGGACCGGTTTTCCCGGTAATCCGTATTTGAT (site TATATCGCTAT) | 0.63 |
| TATATGGCATGGACCGGTTTTCCCGGTAATCCGTATTTGGT (site TATATGGCTAC) | 0.39 |
| TATATGGCATGGACCGGTTTTCCCGGTAATCCGTATTTGTT (site TATATGGCTAA) | 0.36 |

| Sequence | recombinant UMI read abundance (log10) |
| --- | --- |
| TATCAGGCATGGACCGGTTTTCCCGGTAATCCGTATTTGTG (site TATCAGGCTCA) | 0.113 |
| TATCATCCATGGACCGGTTTTCCCGGTAATCCGTATTTGGT (site TATCATCCTAC) | 0.0117 |
| TATCCCGCATGGACCGGTTTTCCCGGTAATCCGTATTTGTT (site TATCCCGCTAA) | 0.479 |
| TATCTTACATGGACCGGTTTTCCCGGTAATCCGTATTTGTA (site TATCTTACTTA) | 0.0229 |
| TATGAATCATGGACCGGTTTTCCCGGTAATCCGTATTTGCC (site TATGAATCTGG) | 1.12 |
| TATGAATCATGGACCGGTTTTCCCGGTAATCCGTATTTGCG (site TAAGAATCTCG) | 1.85 |
| TATGAATCATGGACCGGTTTTCCCGGTAATCCGTATTTGCG (site TACGAATCTCG) | 2.23 |
| TATGAATCATGGACCGGTTTTCCCGGTAATCCGTATTTGCG (site TAGGAATCTCG) | 0.768 |
| TATGAATCATGGACCGGTTTTCCCGGTAATCCGTATTTGCG (site TATGAATCTCG) | 2.18 |
| TATGACCCATGGACCGGTTTTCCCGGTAATCCGTATTTGAG (site TATGACCCTCT) | 0.00635 |
| TATGAGCCATGGACCGGTTTTCCCGGTAATCCGTATTTGGA (site TATGAGCCTTC) | 0.00722 |
| TATGCGGCATGGACCGGTTTTCCCGGTAATCCGTATTTGCT (site TATGCGGCTAG) | 0.532 |
| TATGCGGCATGGACCGGTTTTCCCGGTAATCCGTATTTGCT (site TCTGCGGCTAG) | 0.00356 |
| TATGCGGCATGGACCGGTTTTCCCGGTAATCCGTATTTGCT (site TGTGCGGCTAG) | 0.029 |
| TATGCGGCATGGACCGGTTTTCCCGGTAATCCGTATTTGCT (site TTTGCGGCTAG) | 0.00802 |
| TATGTAACATGGACCGGTTTTCCCGGTAATCCGTATTTGAC (site GTACCGTCTAA) | 0.0137 |
| TATGTCCCATGGACCGGTTTTCCCGGTAATCCGTATTTGGA (site TATGTCCCTTC) | 0.00458 |
| TATTCCCCATGGACCGGTTTTCCCGGTAATCCGTATTTGTA (site TATTCCCCTTA) | 0.0102 |
| TATTCCCCATGGACCGGTTTTCCCGGTAATCCGTATTTGTA (site TCTTCCCCTTA) | 0.207 |
